pIC50: −log10 of the molar value.
These compounds were tested against T1, Chk1 (Homo sapiens, UniProt O14757) (assay: Chk1 kinase assay: incorporation of γ-33P ATP into immobilized myelin basic protein). Conditions: read-out: Chk1 IC50.
T1 construct: purchased Upstate Biotechnology
T1 sequence (O14757 1-476): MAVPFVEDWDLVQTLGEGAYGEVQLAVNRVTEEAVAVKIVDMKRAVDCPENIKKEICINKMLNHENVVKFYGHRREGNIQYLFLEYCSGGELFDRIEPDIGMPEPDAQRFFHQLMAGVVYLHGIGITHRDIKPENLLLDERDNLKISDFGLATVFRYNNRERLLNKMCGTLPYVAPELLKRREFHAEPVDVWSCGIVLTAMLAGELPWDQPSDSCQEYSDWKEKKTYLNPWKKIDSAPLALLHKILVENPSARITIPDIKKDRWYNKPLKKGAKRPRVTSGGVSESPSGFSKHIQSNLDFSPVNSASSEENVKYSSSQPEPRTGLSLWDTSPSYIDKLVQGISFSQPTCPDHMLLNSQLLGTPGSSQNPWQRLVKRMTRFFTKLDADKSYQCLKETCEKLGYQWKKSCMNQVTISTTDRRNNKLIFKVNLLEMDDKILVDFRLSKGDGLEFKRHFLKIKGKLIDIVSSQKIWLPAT
Format: biochemical
Description: Chk1 and Chk2 assays were performed by measuring incorporation of γ-^33P ATP into immobilized myelin basic protein (MBP). High binding white 384 well plates (Greiner) were coated with MBP (Sigma #M-1891) by incubation of 60 ul/well of 20 μg/ml MBP in Tris-buffered saline (TBS; 50 mM Tris pH 8.0, 138 mM NaCl, 2.7 mM KCl) for 24 hours at 4° C. Plates were washed 3× with 100 μl TBS. Kinase reactions were carried out in a total volume of 34 μl in kinase buffer (5 mM Hepes pH 7.6, 15 mM NaCl, 0.01% bovine gamma globulin (Sigma #I-5506), 10 mM MgCl2, 1 mM DTT, 0.02% TritonX-100). Compound dilutions were performed in DMSO and added to assay wells to a final DMSO concentration of 1%. Each data point was measured in duplicate, and at least two duplicate assays were performed for each individual compound determination. Chk1 and Chk2 enzymes (Upstate Biotechnology) were added to final concentrations of 10 nM (Chk1) or 20 nM (Chk2). A mixture of unlabeled ATP and γ-^33P ATP was added to start the reaction (2×10^6 cpm of γ-^33P ATP per well (3000 Ci/mmole) and either 10 μM or 30 μM unlabeled ATP (for Chk1 and Chk2 assays respectively). The reaction was carried out for 1 hour at room temperature with shaking. Plates were washed 7× with TBS, followed by the addition of 50 μl/well scintillation fluid (Wallac). Plates were read using a Wallac Trilux counter. This is only one format of such assays, various other formats are possible, as known to those skilled in the art.
The above assay procedure can be used to determine the IC50 for inhibition and/or the inhibition constant Ki. The IC50 is defined as the concentration of compound required to reduce the enzyme activity by 50% under the conditions of the assay. […] The Ki for a compound may be determined from the IC50 based on three assumptions. First, only one compound molecule binds to the enzyme and there is no cooperativity. […] Third, the enzymatic rate of the enzyme-inhibitor complex is zero. The rate (i.e., compound concentration) data are fitted to the equation: […]

Row | pIC50 | SMILES
1 | 6.00 to 7.30 | CNC(=O)c1nc(-c2cccc(C(=O)NCCc3ccccc3)c2)cnc1N [Example 94, 3-amino-N-methyl-6-(3-{[(2-phenylethyl)amino]carbonyl}phenyl)pyrazine-2-carboxamide]
2 | 6.00 to 7.30 | CNC(=O)c1nc(-c2cccc(C(=O)N[C@H]3CCc4ccccc43)c2)cnc1N [Example 97, 3-amino-6-(3-{[(1S)-2,3-dihydro-1H-inden-1-ylamino]carbonyl}phenyl)-N-methylpyrazine-2-carboxamide]
3 | 6.00 to 7.30 | CNC(=O)c1nc(-c2cccc(C(=O)NCc3ccc(Cl)cc3)c2)cnc1N [Example 98, 3-amino-6-[3-({[(4-chlorophenyl)methyl]amino}carbonyl)phenyl]-N-methylpyrazine-2-carboxamide]
4 | 5.00 to 6.00 | CNC(=O)c1nc(-c2cccc(C(=O)N(C)Cc3ccccc3)c2)cnc1N [Example 99, 3-amino-N-methyl-6-(3-{[methyl(phenylmethyl)amino]carbonyl}phenyl)pyrazine-2-carboxamide]
5 | 6.00 to 7.30 | CNC(=O)c1nc(-c2cccc(C(=O)NCc3ccc(C(F)(F)F)cc3)c2)cnc1N [Example 102, 3-amino-N-methyl-6-{3-[({[4-(trifluoromethyl)phenyl]methyl}amino)carbonyl]phenyl}pyrazine-2-carboxamide]
6 | 6.00 to 7.30 | CNC(=O)c1nc(-c2cccc(C(=O)NC3Cc4ccccc4C3)c2)cnc1N [Example 104, 3-amino-6-{3-[(2,3-dihydro-1H-inden-2-ylamino)carbonyl]phenyl}-N-methylpyrazine-2-carboxamide]
7 | 6.00 to 7.30 | CNC(=O)c1nc(-c2cccc(NC(=O)c3ccc(OC)cc3)c2)cnc1N [Example 106, 3-amino-N-methyl-6-[3-({[4-(methyloxy)phenyl]carbonyl}amino)phenyl]pyrazine-2-carboxamide]
8 | 6.00 to 7.30 | CNC(=O)c1nc(-c2cccc(C(=O)NCc3cccc(OC)c3)c2)cnc1N [Example 107, 3-amino-N-methyl-6-{3-[({[3-(methyloxy)phenyl]methyl}amino)carbonyl]phenyl}pyrazine-2-carboxamide]
9 | 6.00 to 7.30 | CNC(=O)c1nc(-c2cccc(C(=O)NCc3cccc(F)c3)c2)cnc1N [Example 110, 3-amino-6-[3-({[(3-fluorophenyl)methyl]amino}carbonyl)phenyl]-N-methylpyrazine-2-carboxamide]
10 | 5.00 to 6.00 | CNC(=O)c1nc(-c2cccc(C(=O)NC(C)c3ccc(F)cc3)c2)cnc1N (stereo not shown) [Example 112, 3-amino-6-[3-({[1-(4-fluorophenyl)ethyl]amino}carbonyl)phenyl]-N-methylpyrazine-2-carboxamide]
11 | 6.00 to 7.30 | CNC(=O)c1nc(-c2cccc(C(=O)NCc3cccc(OC)c3OC)c2)cnc1N [Example 113, 3-amino-6-{3-[({[2,3-bis(methyloxy)phenyl]methyl}amino)carbonyl]phenyl}-N-methylpyrazine-2-carboxamide]
12 | 5.00 to 6.00 | CCN(Cc1ccncc1)C(=O)c1cccc(-c2cnc(N)c(C(=O)NC)n2)c1 [Example 116, 3-amino-6-(3-{[ethyl(pyridin-4-ylmethyl)amino]carbonyl}phenyl)-N-methylpyrazine-2-carboxamide]
13 | 5.00 to 6.00 | CNC(=O)c1nc(-c2cccc(C(=O)N3CCN(Cc4ccccc4)CC3)c2)cnc1N [Example 117, 3-amino-N-methyl-6-(3-{[4-(phenylmethyl)piperazin-1-yl]carbonyl}phenyl)pyrazine-2-carboxamide]
14 | 6.00 to 7.30 | CNC(=O)c1nc(-c2cccc(C(=O)NC3CCN(Cc4ccccc4)CC3)c2)cnc1N [Example 118, 3-amino-N-methyl-6-[3-({[1-(phenylmethyl)piperidin-4-yl]amino}carbonyl)phenyl]pyrazine-2-carboxamide]
15 | 5.00 to 6.00 | CNC(=O)c1nc(-c2cccc(C(=O)NCc3cnc(C)cn3)c2)cnc1N [Example 120, 3-amino-N-methyl-6-[3-({[(5-methylpyrazin-2-yl)methyl]amino}carbonyl)phenyl]pyrazine-2-carboxamide]
16 | 6.00 to 7.30 | CNC(=O)c1nc(-c2cccc(C(=O)NCc3ccccn3)c2)cnc1N [Example 121, 3-amino-N-methyl-6-(3-{[(pyridin-2-ylmethyl)amino]carbonyl}phenyl)pyrazine-2-carboxamide]
17 | 6.00 to 7.30 | CNC(=O)c1nc(-c2cccc(C(=O)NCc3ccncc3)c2)cnc1N [Example 123, 3-amino-N-methyl-6-(3-{[(pyridin-4-ylmethyl)amino]carbonyl}phenyl)pyrazine-2-carboxamide]

The remaining lines, values behind:

Row | SMILES | pIC50
18 | CNC(=O)c1nc(-c2cccc(C(=O)NCc3ccc(OC)cc3)c2)cnc1N [Example 95, 3-amino-N-methyl-6-{3-[({[4-(methyloxy)phenyl]methyl}amino)carbonyl]phenyl}pyrazine-2-carboxamide] | 6.00 to 7.30
19 | CNC(=O)c1nc(-c2cccc(C(=O)N[C@@H]3CCc4ccccc43)c2)cnc1N [Example 96, 3-amino-6-(3-{[(1R)-2,3-dihydro-1H-inden-1-ylamino]carbonyl}phenyl)-N-methylpyrazine-2-carboxamide] | 5.00 to 6.00
20 | CNC(=O)c1nc(-c2cccc(C(=O)NCc3ccc(Cl)cc3Cl)c2)cnc1N [Example 100, 3-amino-6-[3-({[(2,4-dichlorophenyl)methyl]amino}carbonyl)phenyl]-N-methylpyrazine-2-carboxamide] | 6.00 to 7.30
21 | CNC(=O)c1nc(-c2cccc(C(=O)NCc3ccc(C)cc3)c2)cnc1N [Example 101, 3-amino-N-methyl-6-[3-({[(4-methylphenyl)methyl]amino}carbonyl)phenyl]pyrazine-2-carboxamide] | 6.00 to 7.30
22 | CNC(=O)c1nc(-c2cccc(C(=O)NCc3ccc(F)cc3)c2)cnc1N [Example 103, 3-amino-6-[3-({[(4-fluorophenyl)methyl]amino}carbonyl)phenyl]-N-methylpyrazine-2-carboxamide] | 6.00 to 7.30
23 | CNC(=O)c1nc(-c2cccc(NC(=O)c3cccc(OC)c3)c2)cnc1N [Example 105, 3-amino-N-methyl-6-[3-({[3-(methyloxy)phenyl]carbonyl}amino)phenyl]pyrazine-2-carboxamide] | 6.00 to 7.30
24 | CNC(=O)c1nc(-c2cccc(C(=O)N[C@H](C)c3ccc(OC)cc3)c2)cnc1N [Example 108, 3-amino-N-methyl-6-{3-[({(1R)-1-[4-(methyloxy)phenyl]ethyl}amino)carbonyl]phenyl}pyrazine-2-carboxamide] | 5.00 to 6.00
25 | CNC(=O)c1nc(-c2cccc(C(=O)NCc3ccccc3C(F)(F)F)c2)cnc1N [Example 109, 3-amino-N-methyl-6-{3-[({[2-(trifluoromethyl)phenyl]methyl}amino)carbonyl]phenyl}pyrazine-2-carboxamide] | 6.00 to 7.30
26 | CNC(=O)c1nc(-c2cccc(NC(=O)c3ccc(Cl)cc3)c2)cnc1N [Example 111, 3-amino-6-(3-{[(4-chlorophenyl)carbonyl]amino}phenyl)-N-methylpyrazine-2-carboxamide] | 6.00 to 7.30
27 | CNC(=O)c1nc(-c2cccc(C(=O)N(Cc3ccccc3)Cc3ccccc3)c2)cnc1N [Example 114, 3-amino-6-(3-{[bis(phenylmethyl)amino]carbonyl}phenyl)-N-methylpyrazine-2-carboxamide] | 5.00 to 6.00
28 | CNC(=O)c1nc(-c2cccc(C(=O)NCc3ccc(OC)cc3OC)c2)cnc1N [Example 115, 3-amino-6-{3-[({[2,4-bis(methyloxy)phenyl]methyl}amino)carbonyl]phenyl}-N-methylpyrazine-2-carboxamide] | 6.00 to 7.30
29 | CNC(=O)c1nc(-c2cccc(NC(=O)c3ccc(C)cc3)c2)cnc1N [Example 119, 3-amino-N-methyl-6-(3-{[(4-methylphenyl)carbonyl]amino}phenyl)pyrazine-2-carboxamide] | 6.00 to 7.30
30 | CNC(=O)c1nc(-c2cccc(C(=O)NCc3cccnc3)c2)cnc1N [Example 122, 3-amino-N-methyl-6-(3-{[(pyridin-3-ylmethyl)amino]carbonyl}phenyl)pyrazine-2-carboxamide] | 6.00 to 7.30
31 | CNC(=O)c1nc(-c2cccc(NC(=O)c3ccco3)c2)cnc1N [Example 124, 3-amino-6-{3-[(furan-2-ylcarbonyl)amino]phenyl}-N-methylpyrazine-2-carboxamide] | 6.00 to 7.30

— patent US7704995B2 (Exelixis, Inc., priority 2003, dated 2010)
